One data set concerns Candida albicans. Put plainly: Antimicrobial screening by agar dilution. It counts as cell-based. The note with it: after 10, 20, 40 and 60 minutes at all dilutions 1:100, 1:200, 1:400, 1:800. As for the experimental part:
(§1) The antibacterial properties of the synthesized compound 6-(3-hydroxyphenyl)-2-methoxy-4-(3-methylphenyl)nicotinonitrile were studied by the method of agar dilution. Test solutions of each compound was prepared in concentration of 1% using dimethylformamide as a solvent then they are diluted in physiological solution to obtain the final experimental dilutions 1:100, 1:200, 1:400, 1:800. The effects of these substances are compared with furacillin in a controllable study. The testing microbes used were gram positive bacteria Staphylococcus aureus, gram negative bacteria Pseudomonas aeruginosa and Escherichia coli and Candida albicans fungus. The experiments used for this survey were meat-pentonlu agar (EPA) for cultivation of bacteria and Saburo environment for the fungus. Each experiment used 1 mL of test solution on each plate […]. Two drops of emulsified with microbes feel were added. All experimental samples were taken from the agar after 10, 20, 40, 60 minutes in the environment on the basis of Patrk planted. The bacteria were cultivated at a temperature of 37° C. for 1 day and the mushroom was kept in a thermostat for […] at a temperature of 28° C. Then results were checked.
(In general: In agar dilution the substance is mixed into plates at graded concentrations.)

In the next data set the test system is Escherichia coli. Description: Antimicrobial screening by agar dilution. Format: cell-based. The following applies: after 10, 20, 40 and 60 minutes at all dilutions 1:100, 1:200, 1:400, 1:800. As for the experimental part: as §1
Another data set concerns Pseudomonas aeruginosa. Put plainly: Antimicrobial screening by agar dilution. The following applies: after 10, 20, 40 and 60 minutes at all dilutions 1:100, 1:200, 1:400, 1:800. It counts as cell-based. As for the experimental part:
as §1

Another data set relates to Staphylococcus aureus. Put plainly: Antimicrobial screening by agar dilution. Format: cell-based. The note with it: after 10, 20, 40 and 60 minutes at all dilutions 1:100, 1:200, 1:400, 1:800. The procedure:
as §1

The melting point is the temperature, or range, at which the solid turns liquid.

Structures are written as SMILES.

Compound `COc1nc(-c2cccc(O)c2)cc(-c2cccc(C)c2)c1C#N` [6-(3-hydroxyphenyl)-2-methoxy-4-(3-methylphenyl)nicotinonitrile] yielded a melting point of 205 to 207 °C. In addition, the “inhibition activity (in words)” value in the data set with Candida albicans is given as “highest inhibition activity”. The “inhibition activity (in words)” value with Escherichia coli is “highest inhibition activity”. In addition, in the data set on Pseudomonas aeruginosa, the “inhibition activity (in words)” value is “highest inhibition activity”. In the data set with Staphylococcus aureus, the “inhibition activity (in words)” value was “highest inhibition activity”.

The values are drawn from US11970451B1, “6-(3-hydroxyphenyl)-2-methoxy-4-(3-methylphenyl)nicotinonitrile as an antimicrobial compound” (KING FAISAL UNIVERSITY, priority 2023, dated 2024).
